Literature values in patent publication US9504728B2, “Dosage form” (priority 2011, dated 2016).
Where two headings read alike, the source gives them in different places.

Assays:
HBV = conditions: Ptak et al. 2008; read-out: IC50 against HBV; cited from earlier work
HIV-1 = conditions: Steyn et al., 2006, cited from earlier work

Question: With C/C=C/C[C@@H](C)[C@@H](O)[C@H]1C(=O)N[C@@H](CC)C(=O)N(C)[C@H](C)C(=O)N(CC)[C@@H](C(C)C)C(=O)N[C@@H](C(C)C)C(=O)N(C)[C@@H](CC(C)C)C(=O)N[C@@H](C)C(=O)N[C@H](C)C(=O)N(C)[C@@H](CC(C)C)C(=O)N(C)[C@@H](CC(C)C)C(=O)N(C)[C@@H](C(C)C)C(=O)N1C [DEBIO-025] as the molecule, how does the IC50 (HBV) read?
Answer: The IC50 was 4.1 µM.

Question: And the “reduction of HIV-1 RNA levels” value (HIV-1; in nine patients)?
Answer: The value was no less than 0.5 log 10 copies/mL.

Question: And the “reduction of HIV-1 RNA levels” value (HIV-1; in two patients)?
Answer: Its value is greater than 1 log 10 copies/mL.
